According to patent US4346173A, “Process for the production of acyl-Coenzyme A oxidase” (Toyo Jozo Kabushiki Kaisha, priority 1979, dated 1982):

B1: acyl-CoA oxidase of Saccharomyces cerevisiae (strain Y 0036) (Saccharomyces cerevisiae S288C) (protein)
chain: MTRRTTINPDSVVLNPQKFIQKERADSKIKVDQVNTFLESSPERRTLTHALIDQIVNDPILKTDTDYYDAKKMQEREITAKKIARLASYMEHDIKTVRKHFRDTDLMKELQANDPDKASPLTNKDLFIFDKRLSLVANIDPQLGTRVGVHLGLFGNCIKGNGTDEQIRYWLQERGATLMKGIYGCFAMTELGHGSNVAQLQTRAVYDKQNDTFVIDTPDLTATKWWIGGAAHSATHAAVYARLIVEGKDYGVKTFVVPLRDPSTFQLLAGVSIGDIGAKMGRDGIDNGWIQFRNVVIPREFMLSRFTKVVRSPDGSVTVKTEPQLDQISGYSALLSGRVNMVMDSFRFGSKFATIAVRYAVGRQQFAPRKGLSETQLIDYPLHQYRVLPQLCVPYLVSPVAFKLMDNYYSTLDELYNASSSAYKAALVTVSKKLKNLFIDSASLKATNTWLIATLIDELRQTCGGHGYSQYNGFGKGYDDWVVQCTWEGDNNVLSLTSAKSILKKFIDSATKGRFDNTLDVDSFSYLKPQYIGSVVSGEIKSGLKELGDYTEIWSITLIKLLAHIGTLVEKSRSIDSVSKLLVLVSKFHALRCMLKTYYDKLNSRDSHISDEITKESMWNVYKLFSLYFIDKHSGEFQQFKIFTPDQISKVVQPQLLALLPIVRKDCIGLTDSFELPDAMLNSPIGYFDGDIYHNYFNEVCRNNPVEADGAGKPSYHALLSSMLGRGFEFDQKLGGAANAEILSKINK
notes: endogenous in cells; host or cells: Saccharomyces cerevisiae Y 0036 (FERM-P No. 5174; enzyme of the producing strain itself)

Columns and labels:
Assay in all cases: Acyl-CoA oxidase assay (hydrogen peroxide colorimetry at 545 nm), Km value
[1] = test system: acyl-CoA oxidase of Arthrobacter sp. B-0720; assay type: biochemical; settings: substrate of the assay method: palmitoyl-CoA; 37° C.; phosphate buffer pH 7.0 or tris-HCl buffer pH 8.0
Protocol: (§1) Enzyme solution (10 μl) is added to a reaction mixture (0.5 ml) consisting of 0.2 M phosphate buffer (pH 7.0) or 0.2 M tris-HCl buffer (pH 8.0) (0.1 ml), 5 mM 4-aminoantipyrine (0.05 ml), 3 mM diethyl m-toludine (0.05 ml), peroxidase (0.5 mg/ml, 0.05 ml), 25 mM palmitoyl-CoA (0.02 ml) and distilled water (0.23 ml) and the mixture is incubated at 37° C. for 10 minutes. 4 M urea (0.5 ml) is added to stop the reaction, and 1% by weight of Triton X-100 (2 ml) is added thereto and the generated hydrogen peroxide is measured at 545 nm by colorimetry.
(§2) A unit (1 unit, 1 U) of enzyme activity is defined as the activity of enzyme which generates 1μ mole of hydrogen peroxide per minute.

[2] = test system: acyl-CoA oxidase of Aspergillus candidus M-4815; assay type: biochemical; settings: substrate of the assay method: palmitoyl-CoA; 37° C.; phosphate buffer pH 7.0 or tris-HCl buffer pH 8.0
Protocol: as §1, §2

[3] = test system: acyl-CoA oxidase of Cladosporium resinae IFO 6367; assay type: biochemical; settings: substrate of the assay method: palmitoyl-CoA; 37° C.; phosphate buffer pH 7.0 or tris-HCl buffer pH 8.0
Protocol: as §1, §2

[4] = test system: acyl-CoA oxidase of Macrophomina phaseoli ATCC 14383; assay type: biochemical; settings: substrate of the assay method: palmitoyl-CoA; 37° C.; phosphate buffer pH 7.0 or tris-HCl buffer pH 8.0
Protocol: as §1, §2

[5] = test system: acyl-CoA oxidase of Monascus sp. M-4800; assay type: biochemical; settings: substrate of the assay method: palmitoyl-CoA; 37° C.; phosphate buffer pH 7.0 or tris-HCl buffer pH 8.0
Protocol: as §1, §2

[6] = substrate: CCCCCCCCCCCCCCCC(=O)SCCNC(=O)CCNC(=O)[C@H](O)C(C)(C)COP(=O)(O)OP(=O)(O)OC[C@H]1O[C@@H](n2cnc3c(N)ncnc32)[C@H](O)[C@@H]1OP(=O)(O)O; assay type: biochemical, Saccharomyces cerevisiae; settings: other: substrate of the assay method: palmitoyl-CoA, 37° C., phosphate buffer pH 7.0 or tris-HCl buffer pH 8.0
Protocol: as §1, §2

Molecule	Km [1]	Km [2]	Km [3]	Km [4]	Km [5]	Km [6]
CCCCCCCCCCCCCCCC(=O)SCCNC(=O)CCNC(=O)[C@H](O)C(C)(C)COP(=O)(O)OP(=O)(O)OC[C@H]1O[C@@H](n2cnc3c(N)ncnc32)[C@H](O)[C@@H]1OP(=O)(O)O [palmitoyl-CoA]	130 µM	110 µM	120 µM	87 µM	150 µM	–
B1	–	–	–	–	–	500 µM
